Laboratory results published in the supplement of paper PMC11451515.

Test system: NOMO1
Assay: cell viability relative to DMSO control; higher = less cytotoxic
Details: 48 h
Procedure, shortened: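 Library compounds in DMSO were pin-dosed into 1536-well plates (5 μl) holding NOMO1 or SEM (500 cells/well) or P12-Ichikawa (1000 cells/well) leukemia cells, across an 11-point threefold series of 47 μM to 0.79 nM. Each cell line had been adapted for at least four passages in each medium. CellTiter-Glo One luminescence was read after 48 h at 37°C. Viability is the per-plate percentage relative to DMSO wells, with cell-free wells as background.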

[1] = HPLM + 10% dialyzed FBS, 0.000781 µM
[2] = HPLM + 10% dialyzed FBS, 0.00234 µM
[3] = HPLM + 10% dialyzed FBS, 0.00702 µM
[4] = HPLM + 10% dialyzed FBS, 0.0211 µM
[5] = HPLM + 10% dialyzed FBS, 0.0632 µM
[6] = HPLM + 10% dialyzed FBS, 0.19 µM
[7] = HPLM + 10% dialyzed FBS, 0.569 µM
[8] = HPLM + 10% dialyzed FBS, 1.71 µM
[9] = HPLM + 10% dialyzed FBS, 5.12 µM
[10] = HPLM + 10% dialyzed FBS, 15.4 µM
[11] = HPLM + 10% dialyzed FBS, 46.1 µM
[12] = RPMI 5 mM glucose + 10% FBS, 0.000781 µM
[13] = RPMI 5 mM glucose + 10% FBS, 0.00234 µM
[14] = RPMI 5 mM glucose + 10% FBS, 0.00702 µM
[15] = RPMI 5 mM glucose + 10% FBS, 0.0211 µM
[16] = RPMI 5 mM glucose + 10% FBS, 0.0632 µM
[17] = RPMI 5 mM glucose + 10% FBS, 0.19 µM
[18] = RPMI 5 mM glucose + 10% FBS, 0.569 µM
[19] = RPMI 5 mM glucose + 10% FBS, 1.71 µM
[20] = RPMI 5 mM glucose + 10% FBS, 5.12 µM
[21] = RPMI 5 mM glucose + 10% FBS, 15.4 µM
[22] = RPMI 5 mM glucose + 10% FBS, 46.1 µM
[23] = RPMI 5 mM glucose + 10% dialyzed FBS, 0.000781 µM
[24] = RPMI 5 mM glucose + 10% dialyzed FBS, 0.00234 µM
[25] = RPMI 5 mM glucose + 10% dialyzed FBS, 0.00702 µM
[26] = RPMI 5 mM glucose + 10% dialyzed FBS, 0.0211 µM
[27] = RPMI 5 mM glucose + 10% dialyzed FBS, 0.0632 µM
[28] = RPMI 5 mM glucose + 10% dialyzed FBS, 0.19 µM
[29] = RPMI 5 mM glucose + 10% dialyzed FBS, 0.569 µM
[30] = RPMI 5 mM glucose + 10% dialyzed FBS, 1.71 µM
[31] = RPMI 5 mM glucose + 10% dialyzed FBS, 5.12 µM
[32] = RPMI 5 mM glucose + 10% dialyzed FBS, 15.4 µM
[33] = RPMI 5 mM glucose + 10% dialyzed FBS, 46.1 µM

| SMILES | cell viability [1] [%] | cell viability [2] [%] | cell viability [3] [%] | cell viability [4] [%] | cell viability [5] [%] | cell viability [6] [%] | cell viability [7] [%] | cell viability [8] [%] | cell viability [9] [%] | cell viability [10] [%] | cell viability [11] [%] | cell viability [12] [%] | cell viability [13] [%] | cell viability [14] [%] | cell viability [15] [%] | cell viability [16] [%] | cell viability [17] [%] | cell viability [18] [%] | cell viability [19] [%] | cell viability [20] [%] | cell viability [21] [%] | cell viability [22] [%] | cell viability [23] [%] | cell viability [24] [%] | cell viability [25] [%] | cell viability [26] [%] | cell viability [27] [%] | cell viability [28] [%] | cell viability [29] [%] | cell viability [30] [%] | cell viability [31] [%] | cell viability [32] [%] | cell viability [33] [%] |
| --- | --- | --- | --- | --- | --- | --- | --- | --- | --- | --- | --- | --- | --- | --- | --- | --- | --- | --- | --- | --- | --- | --- | --- | --- | --- | --- | --- | --- | --- | --- | --- | --- | --- |
| OCCn1cc(-c2cnc3nnn(Cc4ccc5ncccc5c4)c3n2)cn1 | 106 | 104 | 123 | 110 | 102 | 118 | 92.2 | 103 | 92.1 | 89.7 | 63.2 | 99.4 | 110 | 112 | 99.9 | 93.2 | 116 | 110 | 107 | 102 | 105 | 96.5 | 93.3 | 105 | 103 | 112 | 105 | 91.7 | 97.1 | 103 | 86.8 | 80.6 | 82.2 |
| C[C@H]1O[C@H](C[C@H](O)[C@@H]1O)O[C@H]2[C@@H](O)C[C@@H](O[C@@H]2C)O[C@H]3[C@@H](O)C[C@@H](O[C@@H]3C)O[C@H]4CC[C@@]5(C)[C@H](CC[C@@H]6[C@@H]5C[C@@H](O)[C@]7(C)[C@H](CC[C@]67O)C/8=C/C(=O)OC8)C4 | 120 | 119 | 136 | 138 | 97.2 | 25.3 | 12.2 | 8.48 | 8.1 | 7.39 | 5.28 | 113 | 112 | 120 | 107 | 107 | 95.8 | 21.9 | 9.57 | 11 | 12.1 | 9.59 | 120 | 121 | 109 | 115 | 114 | 57.2 | 13.5 | 7.93 | 7.1 | 7.81 | 7.62 |
| CN1CCN(CCCN2c3ccccc3Sc3ccc(C(F)(F)F)cc32)CC1 | 105 | 106 | 112 | 117 | 108 | 115 | 125 | 95.4 | 32.9 | 20.6 | 24.2 | 100 | 104 | 108 | 101 | 96.2 | 98.5 | 106 | 61.5 | 18.7 | 16.7 | 11.3 | 99.6 | 107 | 105 | 108 | 119 | 113 | 103 | 104 | 27.2 | 25.6 | 21 |
| Cc1onc(-c2ccccc2)c1C(=O)N[C@@H]1C(=O)N2[C@@H]1SC(C)(C)[C@@H]2C(=O)[O-].[Na+] | 120 | 131 | 105 | 113 | 134 | 98.5 | 95.5 | 64.5 | 77.8 | 51.1 | 54.7 | 112 | 111 | 117 | 104 | 112 | 103 | 101 | 79.5 | 77.7 | 84.7 | 56.8 | 111 | 109 | 115 | 114 | 101 | 97.4 | 98.6 | 88.9 | 72.2 | 67.1 | 53.8 |
| CNC(=O)Nc1ccc(-c2nc(N3CC4CCC(C3)O4)c3cnn(C4CCC5(CC4)OCCO5)c3n2)cc1 | 101 | 88.6 | 97.2 | 86.1 | 73 | 75.9 | 70.4 | 63.8 | 63.3 | 57.2 | 51.6 | 108 | 115 | 118 | 99.3 | 91.4 | 81.1 | 74.7 | 73 | 72.2 | 65.1 | 69.8 | 105 | 101 | 84.3 | 79.3 | 77.6 | 68.5 | 71.5 | 62 | 62 | 55.1 | 52.4 |
| CNC(=O)[C@H](CC/1=C/N=C\2/C=C\C\C=C12)NC(=O)[C@H](CC(C)C)CC(=O)NO | 108 | 102 | 113 | 111 | 120 | 124 | 123 | 88.3 | 78.6 | 25.4 | 25.6 | 99.5 | 109 | 89.2 | 102 | 113 | 103 | 97 | 97.3 | 97.4 | 11.9 | 14.1 | 114 | 124 | 112 | 111 | 120 | 113 | 109 | 113 | 112 | 21.1 | 22.5 |
| NC/1=N/C(=O)N(/C=N1)[C@@H]2O[C@H](CO)[C@@H](O)[C@H]2O | 108 | 108 | 111 | 101 | 106 | 115 | 108 | 100 | 94.8 | 65.8 | 21.2 | 100 | 109 | 91.5 | 93.6 | 99.9 | 106 | 96.9 | 90.6 | 81.3 | 52.7 | 20.7 | 110 | 112 | 106 | 110 | 116 | 111 | 109 | 91.6 | 72.6 | 32.6 | 14.6 |
| CO/N=C(/C(=O)N[C@@H]1C(=O)N2C(C(=O)O)=C(CSC(=O)c3ccco3)CS[C@H]12)c1csc(N)n1 | 81.5 | 106 | 116 | 102 | 113 | 103 | 109 | 85.5 | 64.8 | 53 | 48.8 | 89.4 | 104 | 99.4 | 98.6 | 103 | 103 | 109 | 92.5 | 90.9 | 73.8 | 77.2 | 82.9 | 97.4 | 99.9 | 111 | 104 | 101 | 111 | 103 | 82.5 | 81.3 | 58.5 |
| CCOC(=O)Nc1ccc(NCc2ccc(F)cc2)nc1N | 123 | 137 | 114 | 127 | 117 | 117 | 108 | 101 | 104 | 109 | 120 | 118 | 105 | 103 | 111 | 110 | 127 | 101 | 105 | 103 | 114 | 106 | 108 | 113 | 110 | 123 | 122 | 109 | 119 | 119 | 112 | 106 | 102 |
| CC[C@]1(O)C[C@@H]2CN(CCc3c([nH]c4ccccc34)[C@@](C(=O)OC)(c3cc4c(cc3OC)N(C)[C@H]3[C@@](O)(C(N)=O)[C@H](O)[C@]5(CC)C=CCN6CC[C@]43[C@@H]65)C2)C1 | – | – | – | – | – | – | – | – | – | – | – | 110 | 113 | 132 | 103 | 96.4 | 25.3 | 21.1 | 25.8 | 21.4 | 22.8 | 21 | 116 | 114 | 106 | 122 | 121 | 44.6 | 24.6 | 28.2 | 24.2 | 23.6 | 20.7 |
| O=[S+]([O-])(c1cccc2cnccc12)N1CCCNCC1 | 98.7 | 124 | 136 | 136 | 132 | 147 | 139 | 136 | 130 | 116 | 51 | – | – | – | – | – | – | – | – | – | – | – | – | – | – | – | – | – | – | – | – | – | – |
| COC1=CC=C(C=C1O)C/2=C/C(=O)C3=C(O2)C=C(O[C@@H]4O[C@H](CO[C@@H]5O[C@@H](C)[C@H](O)[C@@H](O)[C@H]5O)[C@@H](O)[C@H](O)[C@H]4O)C=C3O | 112 | 118 | 129 | 126 | 130 | 142 | 134 | 117 | 117 | 129 | 139 | 112 | 103 | 110 | 115 | 130 | 114 | 126 | 125 | 126 | 124 | 114 | – | – | – | – | – | – | – | – | – | – | – |
| CC(C)Oc1ccc(C(=O)N[C@H](CNC(=O)CN(C)C)Cc2ccc(-c3cn4cccc([C@H](C)O)c4n3)cc2)cc1Cl | 123 | 131 | 108 | 123 | 103 | 99.8 | 113 | 32.6 | 33.1 | 23.6 | 32.5 | 104 | 107 | 112 | 113 | 113 | 98.5 | 87 | 24.8 | 19.7 | 14.6 | 21.6 | 107 | 124 | 112 | 125 | 113 | 109 | 100 | 39.4 | 25.6 | 20.1 | 24.8 |
| Cc1cccc(/C=N/Nc2cc(N3CCOCC3)nc(OCCc3ccccn3)n2)c1 | 101 | 106 | 111 | 107 | 90.2 | 97.9 | 94.5 | 77.5 | 41.5 | 34.4 | 24.3 | 98.8 | 107 | 97.9 | 99.5 | 87.6 | 97 | 77.2 | 68.2 | 19.3 | 22.6 | 21.4 | 99.8 | 93 | 90.9 | 98.6 | 95.4 | 85.8 | 75.9 | 38.7 | 15.1 | 18.8 | 17.5 |
| C[C@@]1(C(=O)Nc2ccc(F)nc2)CCCN1c1nc(Nc2cc(C3CC3)[nH]n2)c2cccn2n1 | 83.2 | 108 | 108 | 89.9 | 90.7 | 71.2 | 77.4 | 67.5 | 44.9 | 46.3 | 62 | 104 | 108 | 120 | 110 | 108 | 93.3 | 112 | 86 | 62.9 | 56.8 | 68.5 | 96.6 | 108 | 105 | 102 | 97.9 | 85.4 | 80 | 86.2 | 51.6 | 55.2 | 60 |
